From patent US8314215B2, “Mild chemically cleavable linker system” (The Board of Trustees of the Leland Stanford Junior …, priority 2006, dated 2012)

Tests used:
Assay in all cases: LC/MS/MS identification of proteins from mouse liver extracts labeled with MTS-I-49
Format in all cases: biochemical
[1] = molecular target: T1, methionine adenosyltransferase 1 (Mus musculus, UniProt Q91X83)
T1 construct: from tissue; host or cells: mouse liver extract
Text: (§1) (1991) Irreversible inhibition of serine proteases by peptide derivatives of (alpha-aminoalkyl)phosphonate diphenyl esters. Biochemistry 30, 485-493). However, it has not been used for any proteomic applications. We used MTS-I-49 to label mouse liver extracts and analyze the labeled sample by both SDS-PAGE (FIG. 5B) and by direct chemical cleavage or on bead digestion.
(§2) After enrichment on immobilized avidin, each of the three labeled proteomes (FIG. 5b) was divided into two aliquots. One was prepared for LC-MS/MS analysis by “on bead” digestion, while the other was chemically eluted and digested “in solution.” Proteins identified in each tissue lysate are listed with their accession number and theoretical molecular weight (MW). To compare both approaches, the number of identified peptides and percentage of amino acid sequence coverage is listed for each protein.
(§3) Proteins in the above Table were identified by LC/MS/MS analysis of on bead digested or chemically eluted proteins from mouse liver extracts labeled with MTS-I-49. […] BLAST database searching identified it as liver carboxylesterase 4. A number of additional endogenously biotinylated proteins were identified in the on-bead digested sample.

[2] = molecular target: T2, acetyl-Coenzyme acyltransferase 2 (Mus musculus, UniProt Q8BWT1)
T2 construct: from tissue; host or cells: mouse liver extract
T2 sequence (Q8BWT1 1-397): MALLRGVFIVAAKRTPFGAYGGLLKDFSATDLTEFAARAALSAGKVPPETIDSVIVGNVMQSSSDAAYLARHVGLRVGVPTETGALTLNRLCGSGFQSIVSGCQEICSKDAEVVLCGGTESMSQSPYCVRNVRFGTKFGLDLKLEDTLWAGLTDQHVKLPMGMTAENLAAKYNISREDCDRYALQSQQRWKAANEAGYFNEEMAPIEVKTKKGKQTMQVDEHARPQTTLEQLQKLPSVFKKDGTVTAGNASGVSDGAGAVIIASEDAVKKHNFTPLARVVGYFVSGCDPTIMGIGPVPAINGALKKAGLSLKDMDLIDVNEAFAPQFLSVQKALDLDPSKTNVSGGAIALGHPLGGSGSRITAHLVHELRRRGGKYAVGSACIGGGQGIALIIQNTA
Text: as §1, §2, §3

[3] = molecular target: T3, carbamoyl-phosphate synthase 1 (Mus musculus, UniProt Q8C196)
T3 construct: from tissue; host or cells: mouse liver extract
T3 sequence (Q8C196 39-1500): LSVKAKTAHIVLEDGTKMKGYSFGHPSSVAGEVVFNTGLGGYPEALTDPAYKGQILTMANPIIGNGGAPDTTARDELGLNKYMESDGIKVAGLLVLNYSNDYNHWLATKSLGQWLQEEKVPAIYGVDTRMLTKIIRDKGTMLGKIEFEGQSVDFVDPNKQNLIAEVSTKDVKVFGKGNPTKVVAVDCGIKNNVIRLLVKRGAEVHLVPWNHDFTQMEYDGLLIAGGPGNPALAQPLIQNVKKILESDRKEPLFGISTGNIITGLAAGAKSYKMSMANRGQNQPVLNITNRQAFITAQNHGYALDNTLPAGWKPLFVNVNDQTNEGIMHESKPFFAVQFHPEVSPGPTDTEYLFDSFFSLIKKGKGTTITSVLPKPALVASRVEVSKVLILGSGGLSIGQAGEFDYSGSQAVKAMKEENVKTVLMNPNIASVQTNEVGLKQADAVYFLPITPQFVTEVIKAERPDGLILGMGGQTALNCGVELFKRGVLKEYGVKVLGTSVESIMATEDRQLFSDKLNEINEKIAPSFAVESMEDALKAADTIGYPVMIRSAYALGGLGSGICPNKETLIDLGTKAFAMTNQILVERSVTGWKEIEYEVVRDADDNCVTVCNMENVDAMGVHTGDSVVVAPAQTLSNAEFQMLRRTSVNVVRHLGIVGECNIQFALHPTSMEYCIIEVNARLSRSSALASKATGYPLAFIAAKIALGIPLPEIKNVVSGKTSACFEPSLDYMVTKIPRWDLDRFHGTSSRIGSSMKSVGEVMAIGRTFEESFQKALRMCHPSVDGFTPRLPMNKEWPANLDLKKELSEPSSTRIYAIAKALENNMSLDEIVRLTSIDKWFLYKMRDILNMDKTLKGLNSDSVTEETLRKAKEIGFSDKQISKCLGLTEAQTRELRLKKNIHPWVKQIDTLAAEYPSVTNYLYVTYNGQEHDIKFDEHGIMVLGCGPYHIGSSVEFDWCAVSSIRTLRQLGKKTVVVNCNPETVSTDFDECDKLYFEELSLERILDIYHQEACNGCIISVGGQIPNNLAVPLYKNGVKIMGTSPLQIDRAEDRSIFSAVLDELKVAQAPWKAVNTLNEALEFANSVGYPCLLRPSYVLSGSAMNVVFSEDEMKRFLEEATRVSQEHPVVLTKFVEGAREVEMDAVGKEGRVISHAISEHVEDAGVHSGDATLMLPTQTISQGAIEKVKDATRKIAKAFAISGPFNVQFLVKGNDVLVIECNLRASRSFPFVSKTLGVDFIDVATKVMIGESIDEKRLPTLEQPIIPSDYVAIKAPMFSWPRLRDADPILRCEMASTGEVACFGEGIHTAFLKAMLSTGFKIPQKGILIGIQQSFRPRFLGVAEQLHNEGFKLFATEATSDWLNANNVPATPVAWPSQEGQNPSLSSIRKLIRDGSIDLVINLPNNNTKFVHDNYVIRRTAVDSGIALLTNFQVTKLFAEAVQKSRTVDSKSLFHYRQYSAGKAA
Text: as §1, §2, §3

[4] = molecular target: T4, betaine-homocysteine methyltransferase (Mus musculus, UniProt O35490)
T4 construct: from tissue; host or cells: mouse liver extract
T4 sequence (O35490 1-407): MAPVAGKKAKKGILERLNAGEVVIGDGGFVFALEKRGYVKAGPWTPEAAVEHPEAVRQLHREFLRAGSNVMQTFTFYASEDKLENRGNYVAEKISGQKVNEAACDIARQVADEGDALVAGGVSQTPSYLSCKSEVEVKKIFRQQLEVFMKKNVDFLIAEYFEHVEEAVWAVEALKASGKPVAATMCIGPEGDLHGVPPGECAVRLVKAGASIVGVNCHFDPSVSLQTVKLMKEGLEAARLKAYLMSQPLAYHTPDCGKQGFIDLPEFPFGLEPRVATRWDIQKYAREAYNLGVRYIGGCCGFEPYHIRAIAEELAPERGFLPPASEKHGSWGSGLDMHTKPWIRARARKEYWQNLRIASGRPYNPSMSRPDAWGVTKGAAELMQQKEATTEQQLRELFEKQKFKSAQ
Text: as §1, §2, §3

[5] = chemically eluted, digested in solution

T1 sequence (Q91X83 whole entry): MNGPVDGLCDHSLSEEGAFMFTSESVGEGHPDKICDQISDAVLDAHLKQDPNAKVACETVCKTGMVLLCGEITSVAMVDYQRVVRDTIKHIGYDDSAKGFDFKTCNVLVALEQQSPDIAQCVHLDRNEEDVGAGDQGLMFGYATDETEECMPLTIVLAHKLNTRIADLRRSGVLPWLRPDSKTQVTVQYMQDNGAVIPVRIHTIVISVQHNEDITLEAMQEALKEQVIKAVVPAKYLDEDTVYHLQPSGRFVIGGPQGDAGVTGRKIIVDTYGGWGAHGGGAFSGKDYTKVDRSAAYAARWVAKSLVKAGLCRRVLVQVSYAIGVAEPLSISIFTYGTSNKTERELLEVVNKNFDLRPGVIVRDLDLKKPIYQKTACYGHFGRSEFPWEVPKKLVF

C[C@H](NC(=O)c1ccc(N=Nc2cc(CCNC(=O)CCCC[C@@H]3SC[C@@H]4NC(=O)N[C@@H]43)ccc2O)cc1)C(=O)N[C@@H](C)C(=O)NC(Cc1ccccc1)P(=O)(Oc1ccccc1)Oc1ccccc1 (stereo partly shown) [MTS-I-49]
Chemical Cleavage, number of identified peptides [1, 5]: 0 | On Bead Digestion, amino acid sequence coverage ([1]; on bead digestion): 9% | On Bead Digestion, number of identified peptides ([1]; on bead digestion): 2 | Chemical Cleavage, amino acid sequence coverage [2, 5]: 15% | Chemical Cleavage, number of identified peptides [2, 5]: 2 | On Bead Digestion, amino acid sequence coverage ([2]; on bead digestion): 26% | On Bead Digestion, number of identified peptides ([2]; on bead digestion): 5 | Chemical Cleavage, number of identified peptides [3, 5]: 0 | On Bead Digestion, amino acid sequence coverage ([3]; on bead digestion): 2 (2%) | On Bead Digestion, number of identified peptides ([3]; on bead digestion): 2 (2%) | Chemical Cleavage, number of identified peptides [4, 5]: 0 | On Bead Digestion, amino acid sequence coverage ([4]; on bead digestion): 19% | On Bead Digestion, number of identified peptides ([4]; on bead digestion): 4
